# Data reported in patent US10160762B2, “6-alkyl dihydropyrazolopyrimidinone compounds as PDE2 inhibitors” (Merck Sharp & Dohme Corp., priority 2015, dated 2018).
# Biological target: T1, human PDE2A1 (Homo sapiens, UniProt O00408)
# T1 construct: GST; purchased BPS Bioscience (San Diego, Calif.) 60020; host or cells: insect cells
# Assay: IMAP FP PDE assay, human PDE2A1
# Format: biochemical
# Conditions: Lab B; read-out: Human PDE2 Ki (nM) Lab B
# Summary of the method: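 FP (IMAP) read after 60 min room-temperature reaction of insect-cell GST-human PDE2A1 with 50 nM FAM-cAMP plus 1000 nM cGMP (pH 7.2 Tris, Mg2+, DTT). Compounds titrated 3-fold over ten points. Apparent Ki derived assuming KM of 10,000 nM; enzyme at 20% substrate turnover.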
# T1 sequence (O00408 1-920 isoform O00408-2): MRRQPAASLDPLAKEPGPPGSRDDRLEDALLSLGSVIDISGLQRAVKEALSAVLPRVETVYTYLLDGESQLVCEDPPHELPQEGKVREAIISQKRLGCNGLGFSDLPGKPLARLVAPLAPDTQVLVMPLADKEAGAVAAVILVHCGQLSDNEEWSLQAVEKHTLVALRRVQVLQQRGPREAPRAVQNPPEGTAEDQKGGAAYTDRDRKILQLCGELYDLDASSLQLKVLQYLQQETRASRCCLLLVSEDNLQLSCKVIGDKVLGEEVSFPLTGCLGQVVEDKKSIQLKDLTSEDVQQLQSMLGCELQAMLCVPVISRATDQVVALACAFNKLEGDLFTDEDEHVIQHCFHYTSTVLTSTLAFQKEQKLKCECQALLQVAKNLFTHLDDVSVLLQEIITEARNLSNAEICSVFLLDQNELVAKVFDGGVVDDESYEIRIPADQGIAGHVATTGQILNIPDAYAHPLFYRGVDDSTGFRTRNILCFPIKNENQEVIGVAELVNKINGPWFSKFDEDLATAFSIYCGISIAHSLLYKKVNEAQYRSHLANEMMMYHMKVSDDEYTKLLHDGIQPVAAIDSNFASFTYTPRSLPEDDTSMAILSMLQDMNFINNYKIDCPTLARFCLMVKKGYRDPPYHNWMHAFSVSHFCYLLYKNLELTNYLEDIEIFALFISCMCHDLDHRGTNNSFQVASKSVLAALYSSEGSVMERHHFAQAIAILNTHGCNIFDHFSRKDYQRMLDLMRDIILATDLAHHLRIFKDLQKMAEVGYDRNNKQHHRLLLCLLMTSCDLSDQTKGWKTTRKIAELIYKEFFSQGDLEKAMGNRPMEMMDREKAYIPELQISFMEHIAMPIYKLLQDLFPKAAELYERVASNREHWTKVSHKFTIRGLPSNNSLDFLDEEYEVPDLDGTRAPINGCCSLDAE
row,Compound,Ki
1,"Cc1nc2c(c(CC(F)F)nn2C(C)c2ccc(C(F)(F)F)cc2)c(=O)[nH]1 (single isomer, unassigned) [Example 285]",111 nM
2,"Cc1nc2c(c(CC(F)F)nn2C(C)c2ccc(C(F)(F)F)cc2)c(=O)[nH]1 (single isomer, unassigned) [Example 286]",2 nM
3,"Cc1nc2c(c(CO)nn2C2(c3ccc(C(F)(F)F)cc3)CCC2)c(=O)[nH]1 [Example 78, 3-(Hydroxymethyl)-6-methyl-1-(1-(4-(trifluoromethyl)phenyl)cyclobutyl)-1H-pyrazolo[3,4-d]pyrimidin-4(5H)-one]",4.9 nM
4,"Cc1nc2c(c(C=O)nn2C(C)c2ccc(C(F)(F)F)cc2)c(=O)[nH]1 (stereo not shown) [Example 248, 6-Methyl-4-oxo-1-(1-(4-(trifluoromethyl)phenyl)ethyl)-4,5-dihydro-1H-pyrazolo[3,4-d]pyrimidine-3-carbaldehyde]",66 nM

# The remaining compounds from weak to strong by Ki, led by results:
row,Ki,Compound
1,64 nM,"CC(c1ccc(C(F)(F)F)cc1)n1nc(CO)c2c(=O)[nH]c(C(F)F)nc21 (stereo not shown) [Example 284, 6-(Difluoromethyl)-3-(hydroxymethyl)-1-(1-(4-(trifluoromethyl)phenyl)ethyl)-1H-pyrazolo[3,4-d]pyrimidin-4(5H)-one]"
2,7.2 nM,"Cc1nc2c(c(/C=N\O)nn2C(C)c2ccc(C(F)(F)F)cc2)c(=O)[nH]1 (stereo not shown) [Example 251, (Z)-6-Methyl-4-oxo-1-(1-(4-(trifluoromethyl)phenyl)ethyl)-4,5-dihydro-1H-pyrazolo[3,4-d]pyrimidine-3-carbaldehyde oxime]"
3,3.5 nM,"COCc1nc2c(c(CO)nn2C(C)c2ccc(C(F)(F)F)cc2)c(=O)[nH]1 (single isomer, unassigned) [Example 293]"
